For 24 molecules, IC50 results are on record in patent publication US9573957B2 (Boehringer Ingelheim International GmbH, priority 2013, dated 2017).

In one assay the target is human LTA4 hydrolase (Homo sapiens (Human), UniProt P09960). In words: LTA4H Enzyme assay (peptidase, Arg-AMC cleavage). The conditions noted are these: LTA4H Enzyme 1 nM, Arg-AMC substrate 50 μM, room temperature 1 h, fluorescence. It counts as biochemical. The essentials: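 Peptidase activity of human LTA4H (1 nM final) on Arg-AMC (50 μM final), with compound, 1 h at room temperature. Buffer: 50 mM Tris-HCl pH 7.5, 100 mM KCl, 0.5% BSA.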
human LTA4 hydrolase, sequence (P09960 whole entry): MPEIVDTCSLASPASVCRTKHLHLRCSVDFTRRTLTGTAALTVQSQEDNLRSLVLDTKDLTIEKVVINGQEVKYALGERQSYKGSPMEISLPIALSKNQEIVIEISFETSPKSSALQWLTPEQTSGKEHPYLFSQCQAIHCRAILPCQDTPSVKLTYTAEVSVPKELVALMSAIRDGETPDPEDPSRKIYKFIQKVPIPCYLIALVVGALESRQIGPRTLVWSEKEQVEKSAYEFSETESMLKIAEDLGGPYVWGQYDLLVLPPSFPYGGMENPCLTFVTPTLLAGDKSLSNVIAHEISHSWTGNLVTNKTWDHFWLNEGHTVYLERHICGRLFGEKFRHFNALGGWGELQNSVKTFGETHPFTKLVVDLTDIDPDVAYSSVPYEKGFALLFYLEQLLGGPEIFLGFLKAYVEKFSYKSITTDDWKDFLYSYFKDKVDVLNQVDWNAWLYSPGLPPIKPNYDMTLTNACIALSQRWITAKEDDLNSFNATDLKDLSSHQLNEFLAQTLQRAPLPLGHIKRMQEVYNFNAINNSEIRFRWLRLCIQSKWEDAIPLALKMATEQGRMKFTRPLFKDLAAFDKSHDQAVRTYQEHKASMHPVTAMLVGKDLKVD

The subject of assay [1] is synthesis of LTB4 in human whole blood. In words: LTB4 production inhibition assay in human whole blood (HWB). It counts as cell-based. Conditions: heparinized human whole blood, 15 min at 37° C., Calcimycin 20 μM 30 min, plasma LTB4 by HTRF. The essentials: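 Heparinized human whole blood preincubated with compound 15 min at 37° C, then stimulated with calcimycin (20 μM final) for 30 min at 37° C. Plasma separated by centrifugation; LTB4 measured by antibody-based homogeneous time-resolved fluorescence.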
On the technique in general: Time-resolved FRET reads energy transfer from a long-lived donor to a nearby acceptor.

Turning to `CC[C@H](O)C(=O)N1CCN(Cc2ccc3cc(Oc4ccc(-c5ccn[nH]5)cn4)ccc3n2)CC1` [Example 127, (S)-2-Hydroxy-1-(4-{6-[5-(2H-pyrazol-3-yl)-pyridin-2-yloxy]-quinolin-2-ylmethyl}-piperazin-1-yl)-butan-1-one], the concentration for half-maximal inhibition (IC50) (as a rule, the concentration at which inhibition is half-maximal) was 2.3 nM against human LTA4 hydrolase and 320 nM in assay [1].
Consider `COC(C)(C)C(=O)N1CCN(Cc2ccc3cc(Oc4ccc(-c5ccn[nH]5)cn4)ccc3n2)CC1` [Example 128, 2-Methoxy-2-methyl-1-(4-{6-[5-(2H-pyrazol-3-yl)-pyridin-2-yloxy]-quinolin-2-ylmethyl}-piperazin-1-yl)-propan-1-one], for which the half-maximal inhibitory concentration (IC50) against human LTA4 hydrolase came to 0.56 nM; in assay [1] it was 240 nM.
Take `C[C@H](O)C(=O)N1CCN(Cc2ccc3cc(Oc4ccc(-c5ccn[nH]5)cn4)ccc3n2)CC1` [Example 129, (S)-2-Hydroxy-1-(4-{6-[5-(2H-pyrazol-3-yl)-pyridin-2-yloxy]-quinolin-2-ylmethyl}-piperazin-1-yl)-propan-1-one]: the 50% inhibitory concentration (IC50) against human LTA4 hydrolase was found to be 0.86 nM; in assay [1], 180 nM.
In the case of `CC(C)OCC(=O)N1CCN(Cc2ccc3cc(Oc4ccc(-c5ccn[nH]5)cn4)ccc3n2)CC1` [Example 130, 2-Isopropoxy-1-(4-{6-[5-(2H-pyrazol-3-yl)-pyridin-2-yloxy]-quinolin-2-ylmethyl}-piperazin-1-yl)-ethanone], the IC50 against human LTA4 hydrolase came to 2.5 nM; in assay [1], 630 nM.
On the same counts, the results for `O=C(C1CCOCC1)N1CCN(Cc2ccc3cc(Oc4ccc(-c5ccn[nH]5)cn4)ccc3n2)CC1` [Example 131, (4-{6-[5-(2H-Pyrazol-3-yl)-pyridin-2-yloxy]-quinolin-2-ylmethyl}-piperazin-1-yl)-(tetrahydro-pyran-4-yl)-methanone] are 2.3 nM and 360 nM.
The like results for `O=C([C@@H]1CCCO1)N1CCN(Cc2ccc3cc(Oc4ccc(-c5ccn[nH]5)cn4)ccc3n2)CC1` [Example 132, (4-{6-[5-(2H-Pyrazol-3-yl)-pyridin-2-yloxy]-quinolin-2-ylmethyl}-piperazin-1-yl)-(S)-tetrahydro-furan-2-yl-methanone] were, in that order, 2.9 nM and 630 nM.
The like results for `O=C([C@H]1CCCO1)N1CCN(Cc2ccc3cc(Oc4ccc(-c5ccn[nH]5)cn4)ccc3n2)CC1` [Example 133, (4-{6-[5-(2H-Pyrazol-3-yl)-pyridin-2-yloxy]-quinolin-2-ylmethyl}-piperazin-1-yl)-(R)-tetrahydro-furan-2-yl-methanone] were, in that order, 2.9 nM and 320 nM.
Regarding `CC[C@@H](O)C(=O)N1CCN(Cc2ccc3cc(Oc4ccc(-c5ccn[nH]5)cn4)ccc3n2)CC1` [Example 134, (R)-2-Hydroxy-1-(4-{6-[5-(2H-pyrazol-3-yl)-pyridin-2-yloxy]-quinolin-2-ylmethyl}-piperazin-1-yl)-butan-1-one], the IC50 was found to be 3.1 nM on human LTA4 hydrolase and 410 nM in assay [1].
In the case of `CC(C)(CO)C(=O)N1CCN(Cc2ccc3cc(Oc4ccc(-c5ccn[nH]5)cn4)ccc3n2)CC1` [Example 135, 3-Hydroxy-2,2-dimethyl-1-(4-{6-[5-(2H-pyrazol-3-yl)-pyridin-2-yloxy]-quinolin-2-ylmethyl}-piperazin-1-yl)-propan-1-one], the IC50 worked out at 5.4 nM on human LTA4 hydrolase and 610 nM in assay [1].
The like results for `O=C(C1C2COCC21)N1CCN(Cc2ccc3cc(Oc4ccc(-c5ccn[nH]5)cn4)ccc3n2)CC1` (stereo not drawn) [Example 136, (3-Oxa-bicyclo[3.1.0]hex-6-yl)-(4-{6-[5-(2H-pyrazol-3-yl)-pyridin-2-yloxy]-quinolin-2-ylmethyl}-piperazin-1-yl)-methanone] were, in that order, 6 nM and 770 nM.
Turning to `CC(C)[C@H](O)C(=O)N1CCN(Cc2ccc3cc(Oc4ccc(-c5ccn[nH]5)cn4)ccc3n2)CC1` [Example 137, (S)-2-Hydroxy-3-methyl-1-(4-{6-[5-(2H-pyrazol-3-yl)-pyridin-2-yloxy]-quinolin-2-ylmethyl}-piperazin-1-yl)-butan-1-one], the 50% inhibitory concentration (IC50) on human LTA4 hydrolase is 2.5 nM; in assay [1], 440 nM.
Turning to `O=C(N1CCN(Cc2ccc3cc(Oc4ccc(-c5ccn[nH]5)cn4)ccc3n2)CC1)C1(CO)CC1` [Example 138, (1-Hydroxymethyl-cyclopropyl)-(4-{6-[5-(2H-pyrazol-3-yl)-pyridin-2-yloxy]-quinolin-2-ylmethyl}-piperazin-1-yl)-methanone], the IC50 against human LTA4 hydrolase was 1.7 nM; in assay [1], 340 nM.
`O=C(C1CC(O)C1)N1CCN(Cc2ccc3cc(Oc4ccc(-c5ccn[nH]5)cn4)ccc3n2)CC1` (stereo not drawn) [Example 139, (3-Hydroxy-cyclobutyl)-(4-{6-[5-(2H-pyrazol-3-yl)-pyridin-2-yloxy]-quinolin-2-ylmethyl}-piperazin-1-yl)-methanone]: the values for the IC50 (at human LTA4 hydrolase; in assay [1]) were 3 nM and 500 nM, respectively.
On the same counts, the results for `CO[C@H](C)C(=O)N1CCN(Cc2ccc3cc(Oc4ccc(-c5ccn[nH]5)cn4)ccc3n2)CC1` [Example 140, (R)-2-Methoxy-1-(4-{6-[5-(2H-pyrazol-3-yl)-pyridin-2-yloxy]-quinolin-2-ylmethyl}-piperazin-1-yl)-propan-1-one] are 0.57 nM and 150 nM.
As to `O=C([C@@H]1CCOC1)N1CCN(Cc2ccc3cc(Oc4ccc(-c5ccn[nH]5)cn4)ccc3n2)CC1` [Example 141, (4-{6-[5-(2H-Pyrazol-3-yl)-pyridin-2-yloxy]-quinolin-2-ylmethyl}-piperazin-1-yl)-(R)-tetrahydro-furan-3-yl-methanone], the half-inhibitory concentration (IC50) came to 2.7 nM on human LTA4 hydrolase and 400 nM in assay [1].
The like results for `COCCCC(=O)N1CCN(Cc2ccc3cc(Oc4ccc(-c5ccn[nH]5)cn4)ccc3n2)CC1` [Example 142, 4-Methoxy-1-(4-{6-[5-(2H-pyrazol-3-yl)-pyridin-2-yloxy]-quinolin-2-ylmethyl}-piperazin-1-yl)-butan-1-one] were, in that order, 2.5 nM and 930 nM.
On the same counts, the results for `O=C(N1CCN(Cc2ccc3cc(Oc4ccc(-c5ccn[nH]5)cn4)ccc3n2)CC1)C1(O)CCC1` [Example 143, (1-Hydroxy-cyclobutyl)-(4-{6-[5-(2H-pyrazol-3-yl)-pyridin-2-yloxy]-quinolin-2-ylmethyl}-piperazin-1-yl)-methanone] are 1.8 nM and 580 nM.
Regarding `CCCOCC(=O)N1CCN(Cc2ccc3cc(Oc4ccc(-c5ccn[nH]5)cn4)ccc3n2)CC1` [Example 144, 2-Propoxy-1-(4-{6-[5-(2H-pyrazol-3-yl)-pyridin-2-yloxy]-quinolin-2-ylmethyl}-piperazin-1-yl)-ethanone], the half-inhibitory concentration (IC50) is 2.3 nM against human LTA4 hydrolase and 660 nM in assay [1].
On the same counts, the results for `CC(C)(C#N)C(=O)N1CCN(Cc2ccc3cc(Oc4ccc(-c5ccn[nH]5)cn4)ccc3n2)CC1` [Example 145, 2,2-Dimethyl-3-oxo-3-(4-{6-[5-(2H-pyrazol-3-yl)-pyridin-2-yloxy]-quinolin-2-ylmethyl}-piperazin-1-yl)-propionitrile] are 1.3 nM and 510 nM.
On the same counts, the results for `N#CC1(C(=O)N2CCN(Cc3ccc4cc(Oc5ccc(-c6ccn[nH]6)cn5)ccc4n3)CC2)CCC1` [Example 146, 1-(4-{6-[5-(2H-Pyrazol-3-yl)-pyridin-2-yloxy]-quinolin-2-ylmethyl}-piperazine-1-carbonyl)-cyclobutanecarbonitrile] are 3.4 nM and 750 nM.
On the same counts, the results for `N#CC1(C(=O)N2CCN(Cc3ccc4cc(Oc5ccc(-c6ccn[nH]6)cn5)ccc4n3)CC2)CCOCC1` [Example 148, 4-(4-{6-[5-(2H-Pyrazol-3-yl)-pyridin-2-yloxy]-quinolin-2-ylmethyl}-piperazine-1-carbonyl)-tetrahydro-pyran-4-carbonitrile] are 7.9 nM and 1100 nM.
`CC(C#N)C(=O)N1CCN(Cc2ccc3cc(Oc4ccc(-c5ccn[nH]5)cn4)ccc3n2)CC1` (stereo not drawn) [Example 149, 2-Methyl-3-oxo-3-(4-{6-[5-(2H-pyrazol-3-yl)-pyridin-2-yloxy]-quinolin-2-ylmethyl}-piperazin-1-yl)-propionitrile]: the values for the half-maximal inhibitory concentration (IC50) (on human LTA4 hydrolase; in assay [1]) were 0.47 nM and 200 nM, respectively.
`CC1(O)CC(C(=O)N2CCN(Cc3ccc4cc(Oc5ccc(-c6ccn[nH]6)cn5)ccc4n3)CC2)C1` (stereo not drawn) [Example 150, (3-Hydroxy-3-methyl-cyclobutyl)-(4-{6-[5-(2H-pyrazol-3-yl)-pyridin-2-yloxy]-quinolin-2-ylmethyl}-piperazin-1-yl)-methanone]: the IC50 on human LTA4 hydrolase worked out at 3.4 nM; in assay [1] it was 490 nM.
`O=C([C@@H]1CCC[C@@H]1O)N1CCN(Cc2ccc3cc(Oc4ccc(-c5ccn[nH]5)cn4)ccc3n2)CC1` [Example 151, ((1R,2S)-2-Hydroxy-cyclopentyl)-(4-{6-[5-(2H-pyrazol-3-yl)-pyridin-2-yloxy]-quinolin-2-ylmethyl}-piperazin-1-yl)-methanone]: the 50% inhibitory concentration (IC50) turned out to be 6.1 nM at human LTA4 hydrolase and 800 nM in assay [1].
